These results are taken from patent US20230121197A1, “ANTIBODIES SPECIFICALLY BINDING THE CARBOXYMETHYLATED CATALYTIC SUBUNIT OF PROTEIN PHOSPHATASE 2A” (Medizinische Universität Wien, priority 2020, published 2023).

The subject of data set [1] is LNCaP LCMT1 knockdown lines. The data set can be described thus: Colony formation and cell viability (cell titer glo) in LCMT1 knockdown prostate cancer cells. It counts as cell-based, human. Conditions: colony formation (20 uM, 10-12 days) and cell viability (96 hours). A general note: In ATP-based viability assays light output follows the ATP content of the culture.

In a further data set the test system is c-MYC. Description: H358 xenograft tumors, single dose DT-061 time-course: c-MYC IHC. Conditions: single dose DT-061. Type of data set: in vivo, Balb/c nu/nu mice.
For data set [2] the following is noted: mouse, in vivo, 5 mg/kg.
Data set [3] relates to α-carboxymethylation of PP2Ac. The data set can be described thus: H358 xenograft tumors, single dose DT-061 time-course: methyl-PP2Ac by IHC and western blot with 7C10-C5. It counts as in vivo, Balb/c nu/nu mice. As to the method: Next, the immunohistochemical analysis of xenograft tumors was performed. In brief, five micron sections from formalin-fixed paraffin-embedded (FFPE) specimens were deparaffinized in Histo-Clear and ethanol, exposed to 0.3% hydrogen peroxide to block endogenous peroxidase activity, and incubated for antigen retrieval with a citrate-based antigen unmasking solution (H-3300, Vector Laboratories) in a pressure cooker. Tumor sections were blocked with Mouse Ig Blocking Reagent (BMK-2202, Vector Laboratories), and incubated with anti-carboxymethyl PP2Ac specific antibody (7C10-C5) or an antibody recognizing total PP2Ac (ab106262) at 4° C. for two nights. Washes were performed in PBS. Slides were subsequently developed using secondary anti-mouse immunoglobulins/HRP (K1497, Agilent), DAB peroxidase substrate as the chromagen, and hematoxylin for counterstaining nuclei. Slides were sealed, and randomized for subsequent blinded review. Two independent researchers scored the level of carboxymethylated PP2Ac staining (with 7C10-C5) in one section per tumor (min. 6 tumors per treatment/control group). […] Scores from 0-2 are considered low staining, 2-4 as moderate, and 4-6 as high intensity staining. Based on these scores the data was plotted as the percentage of slides from each time point that fell into each group (FIG. 14I).
(In western blotting, separated proteins are transferred to a membrane and probed.)

Consider `CNC(=O)c1ccc(N2C(=S)N(c3ccc(C#N)c(C(F)(F)F)c3)C(=O)C2(C)C)cc1F` [enzalutamide], for which, in data set [1], the “effect of LCMT1 knockdown on response to enzalutamide” value is on record as “decreased sensitivity”.

Turning to `O=S(=O)(N[C@@H]1CCC[C@H](N2c3ccccc3Oc3ccccc32)[C@H]1O)c1ccc(OC(F)(F)F)cc1` [DT-061], the “return of c-MYC to basal levels” value in the data set with c-MYC was not above 6 h. In addition, the “c-MYC in xenograft tumors after treatment” value in the data set with c-MYC (IHC) was “significant decrease of c-MYC at early time points (one, two, and three hours)”. Besides, the “half-life obtained from serum” value in data set [2] was determined as 6.3 h. In addition, in data set [3] (single dose DT-061), the “return of α-carboxymethylated PP2Ac to basal levels post treatment” value was not above 12 h. Besides, the “α-carboxymethylated PP2Ac in xenograft tumors after treatment” value in data set [3] (single dose DT-061 (5 mg/kg), IHC with 7C10-C5) was “increase in α-carboxymethylated PP2Ac at early time points (one, two, and three hours)”.
